Laboratory results taken from paper PMC9907720 (Antiviral research, 2022).
pIC50: −log10 of the molar value. Where two headings read alike, the source gives them in different places.

Legend:
CMV IE1 protein = test: Western blot of IE1 protein in AD169^R-infected NHDFs; assay type: cell-based, Human cytomegalovirus; details: AD169^R-infected NHDF, 24hpi; MBX-4992 1-10 μM, ganciclovir 5 μM, convallotoxin 0.01 μM
HSV-1 E-377 = test: Herpes virus panel, HSV-1 CPE; assay type: cell-based, Herpes simplex virus 1; details: HSV-1 E-377, HFF
EBV Akata = test: Herpes virus panel, EBV qPCR; assay type: cell-based, Epstein-Barr virus; details: Akata cells
HCMV GDGr K17 (GCV^R) = assay type: cell-based, Human cytomegalovirus; details: HFF, CPE
HCMV AD169 = test: Herpes virus panel, HCMV AD169 CPE; assay type: cell-based, Human cytomegalovirus; details: HCMV AD169, HFF
BCBL-1 = BCBL-1 cells, HHV-8 assay
AD169^R [1] = test: Cell pre-treatment wash / no wash infection assay; assay type: cell-based, Human cytomegalovirus; details: cells pre-treated, AD169^R 30 mins at 4°C; MBX-4992 10μM, heparin 50μg/ml; 24hpi
HHV-8 BCBL-1 = test: Herpes virus panel, HHV-8 qPCR; assay type: cell-based, Human herpes virus 8; details: HHV-8 BCBL-1, BCBL-1 cells
GP Lung = GP Lung cells, GpCMV assay
yellow fever = assay type: cell-based
Zika virus = test: Other viral pathogens, Zika virus; assay type: cell-based; details: data not shown
[2] = tested on: AD169^R and TB40/E strains; test: Infectivity assay, AD169^R and TB40/E in NHDF and ARPE-19; assay type: cell-based, Human cytomegalovirus; details: read-out: IC50 values (range), NHDF and ARPE-19 cells, 24hpi
GpCMV 22122 = test: Herpes virus panel, GpCMV qPCR; assay type: cell-based, Guinea pig cytomegalovirus; details: GpCMV 22122, GP Lung cells
influenza A H1N1 = test: Other viral pathogens, influenza A H1N1; assay type: cell-based; details: data not shown
HHV-6B Z29 = test: Herpes virus panel, HHV-6B qPCR; assay type: cell-based, Human herpes virus 6B; details: HHV-6B Z29, MOLT-3, qPCR
MOLT-3 = details: MOLT-3, HHV-6B assay
MEF = details: MCMV assay
VZV Ellen = test: Herpes virus panel, VZV CPE; assay type: cell-based, Varicella-Zoster virus; details: HFF
HSV-2 G = test: Herpes virus panel, HSV-2 CPE; assay type: cell-based, Herpes simplex virus 2; details: HFF
respiratory syncytial = test: Other viral pathogens, respiratory syncytial virus; assay type: cell-based; details: data not shown
hepatitis B = test: Other viral pathogens, hepatitis B; assay type: cell-based; details: data not shown
dengue = test: Other viral pathogens, dengue; assay type: cell-based; details: data not shown
AD169^R [3] = test: Virus pre-incubation wash / no wash infection assay; assay type: cell-based, Human cytomegalovirus; details: MBX-4992 pre-incubated with virus, 24hpi
MCMV Smith = test: Herpes virus panel, MCMV qPCR; assay type: cell-based, Murine cytomegalovirus; details: MEF
Akata = Akata cells, EBV assay
TB40/E [4] = test: Infectivity assay, TB40/E infection of ARPE-19; assay type: cell-based, Human cytomegalovirus; details: TB40/E-infected ARPE-19, 24hpi
AD169^IE2-YFP = test: High-content screening / dose response assay, AD169^IE2-YFP infection of HFF; assay type: cell-based, Human cytomegalovirus; details: read-out: anti-CMV activity IC50, secondary validation assays
AD169^R [5] = test: Infectivity assay, AD169^R infection of NHDF; assay type: cell-based, Human cytomegalovirus; details: AD169^R-infected NHDF, 24hpi
TB40/E [6] = test: Infectivity assay, TB40/E infection of NHDF; assay type: cell-based, Human cytomegalovirus; details: TB40/E-infected NHDF, 24hpi
AD169^R [7] = test: Infectivity assay, AD169^R infection of ARPE-19; assay type: cell-based, Human cytomegalovirus; details: AD169^R-infected ARPE-19, 24hpi

## Nc1nc(O)c2ncn(COC(CO)CO)c2n1 [GCV, ganciclovir]
CMV IE1 protein
  IE1 expression (Western blot): did not impact IE1 expression

## Cc1nc(Nc2ccc(NC(=O)c3ccco3)cc2)cc(N2CCCC2)n1 [MBX-4992]
HSV-1 E-377
  pIC50: < 4.52
EBV Akata
  pIC50: 4.51
HCMV GDGr K17 (GCV^R)
  pIC50: 5.74
HCMV AD169
  pIC50: 5.77
BCBL-1
  CC50: > 100 µM
AD169^R [1]
  virus infection, compound present during infection: significantly inhibited virus during infection
CMV IE1 protein
  IE1 expression (Western blot): decrease in IE1 expression
HHV-8 BCBL-1
  pIC50: 5.00
GP Lung
  CC50: 119 µM
Yellow fever
  antiviral activity: did not exhibit activity
Zika virus
  antiviral activity: did not exhibit activity
[2]
  pIC50: 5.32 to 5.72
GpCMV 22122
  pIC50: < 4.52
Influenza A H1N1
  antiviral activity: did not exhibit activity
HHV-6B Z29
  pIC50: 4.36
MOLT-3
  CC50: > 100 µM
MEF
  CC50: > 150 µM
VZV Ellen
  pIC50: < 4.52
HSV-2 G
  pIC50: < 3.82
Respiratory syncytial
  antiviral activity: did not exhibit activity
HFF; HCMV AD169 assay
  CC50: > 150 µM
HFF; HSV-1 assay
  CC50: 60.6 µM
HFF; HSV-2 assay
  CC50: > 150 µM
HFF; VZV assay
  CC50: 139 µM
Hepatitis B
  antiviral activity: did not exhibit activity
dengue
  antiviral activity: did not exhibit activity
AD169^R [3]
  decrease of virus infection, virus pre-incubated then washed: ~ 25%
MCMV Smith
  pIC50: 5.35
Akata
  CC50: > 100 µM

## Cc1nc(Nc2ccc(NC(=O)c3ccco3)cc2)cc(-n2cccn2)n1 [MBXC-4302]
TB40/E [4]
  pIC50: ~5.35
AD169^IE2-YFP
  pIC50: 5.49
AD169^R [5]
  pIC50: 5.52
TB40/E [6]
  pIC50: ~5.35
AD169^R [7]
  pIC50: 5.24

## C[C@@H]1O[C@@H](O[C@H]2CC[C@]3(C=O)[C@H]4CC[C@]5(C)[C@@H](C6=CC(=O)OC6)CC[C@]5(O)[C@@H]4CC[C@]3(O)C2)[C@H](O)[C@H](O)[C@H]1O [convallatoxin]
CMV IE1 protein
  IE1 expression (Western blot): inhibited IE1 expression

## heparin [reference compound]
AD169^R [1]
  virus infection, compound present during infection: significantly inhibited virus during infection
